Measured values: US9024055B2, “Acetaminophen conjugates, compositions and methods of use thereof” (Acorda Therapeutics, Inc., priority 2011, dated 2015)
Converted amounts (≈) assume the structure as drawn. Read-outs that look alike come from different tables or passages of the source.

How the values were obtained:
[1] = Test article pharmacokinetics in rats after a single oral or intravenous dose; plasma acetaminophen by LC-MS/MS; assay type: in vivo, Sprague-Dawley rats; conditions: for Acetaminophen exposure compared with administration of acetaminophen: equivalent acetaminophen doses, oral and intravenous
Procedure: Forty-eight (48) male and female Sprague-Dawley rats were assigned to eight dose groups consisting of three animals per test article per dose route per gender. There were four test articles including acetaminophen, obtained from Sigma-Aldrich, and three acetaminophen conjugates as set forth below.
The animals received a single dose (oral or intravenous) of the test articles via oral gavage or slow intravenous bolus. […] Cage-side observations were performed daily; body weights were recorded prior to each dosing day. Blood samples for pharmacokinetic (PK) analyses were collected at 5 minutes to 8 hr post-dose and acetaminophen plasma concentrations were measured via a LC-MS/MS method.
Non-compartmental pharmacokinetic analysis was conducted for mean plasma acetaminophen concentrations for each test article. Measures of acetaminophen exposure (e.g., AUClast) were typically greater in female animals than male animals for all test articles and for both the oral and intravenous routes of administration.

[2] = Stability in PBS at 37° C. (control matrix); assay type: physicochemical; conditions: out to four hours
Procedure: (§1) Loss of deuterated acetaminophen (APAP-d4) was also monitored in order to account for compound losses due to the metabolism of acetaminophen. Stability of the test samples in PBS at 37° C. was also determined.
(§2) Five lots of human whole blood (lithium heparin) were purchased from Biochemed and stored refrigerated at +5° C.±3° C. until use. Five lots of SD Rat whole blood (lithium heparin) were purchased from Biochemed and stored refrigerated at +5° C.±3° C. until use. Phosphate-buffered saline was used as a control matrix; it was prepared in-house and stored refrigerated at +5° C.±3° C. until use. Test Articles were weighed immediately prior use.
(§3) Whole blood was removed from storage and allowed to reach room temperature. It was pooled by species at this time. Once the pool reached room temperature, individual 1,980 μL aliquots of the whole blood pool were added to the appropriate tubes on test. Individual 1,980 μL aliquots of blank phosphate buffered saline (PBS) were added to the appropriate tubes on test. All tubes were pre-incubated at 37° C. in a water bath for 5 minutes.
The appropriate intermediate solution was added to each tube on test such that the final concentration of the test article in blood was 6.62 μM. The compound was assayed in triplicate at this concentration. Nominal O-minute samples were aliquoted into a 96-well plate as soon as spiking solution was added. Just prior to a 150 μL sample transfer, 450 μL of acetonitrile:methanol (1:1) was placed in the individual receiving wells in order to stop conversion reactions. The plate containing “stopped” samples was held, covered, in a wet-ice bath until all remaining timepoints were aliquoted. All remaining spiked samples were incubated at 37° C. in a water bath throughout the sampling period. […] Just prior to each transfer, 450 μL, of acetonitrile:methanol (1:1) was placed in the receiving wells for those aliquots in order to stop conversion reactions.

[3] = Rat liver microsome-mediated metabolism (appearance of acetaminophen); assay type: in vitro ADME; conditions: for Stability in buffer: phosphate buffer at 37° C. (rat microsome study)
Procedure: Loss of APAP-d4 was also monitored.
Lot 62548 consisting of ˜334 male rat livers and lot 59232 consisting of 10 female rat livers were pooled at a 1:1 ratio just before use. […] Compounds were weighed immediately prior to use. […] Purity was taken into account for the stock preparation.
Incubation wells were placed in a wet ice-bath.

[4] = Human liver microsome-mediated metabolism (appearance of acetaminophen); conditions: for Stability in buffer: phosphate buffer at 37° C. (human microsome study)
Procedure: The appearance of acetaminophen (APAP) when Test Articles A, B or C are incubated in human liver microsomes at 37° C. was determined. Loss of APAP-d4 was also monitored.
One lot consisted of ˜150 human mixed gender liver microsomes was purchased from BD Biosciences and stored frozen at −80° C. until use. Compounds were weighed immediately prior use. Test Article A, Test Article B, and Test Article C were weighed on a microbalance and dissolved in water to generate individual stock solutions, each at a concentration of 3.31 mM. Purity was taken into account for each stock solution prepared. APAP-d4 was weighed on a microbalance and dissolved in water to generate a stock solution at a 3.31 mM concentration. Purity was taken into account for the stock preparation.
One part Test Articles A, B or C and one part APAP-d4 was added to three parts water to arrive at an intermediate solution consisting of 662 μM for each compound.
The intermediate solutions prepared above were added to phosphate buffer to arrive at solutions consisting of 8.827 μM of each compound; these were called Substrate solutions. Incubation wells were placed in a wet ice-bath. 750 μL of Substrate solution was added to the appropriate wells. […] 50 μL of Microsomal suspension (20 mg/mL) was added to the appropriate wells. […] Samples were pre-incubated by shaking at 37° C. for 5 minutes. Just prior to starting the reactions in the next step 80 μL aliquots were removed and “killed” with 200 μL of Stop solution; these were the 0 min samples.
Reactions for the remaining samples were started by adding 180 μL Cofactor Solution (5×) to the appropriate wells. […] A 20 μL aliquot of Cofactor Solution (5×) was added to the stopped 0 min samples. […] At 2.5, 5, 10, 30, 60, 120, and 240 minutes, 100 μL of the specified incubation sample was removed and “killed” with 200 μL of Stop Solution. Once all required samples were collected, the plate was centrifuged at 3000 rpm for 10 minutes to pellet the precipitated proteins, and the resultant supernatants were transferred to a fresh 96-well plate for extraction and analysis.
Samples were analyzed for acetaminophen and acetaminophen-d4 concentrations, using a method that employs HPLC and MS/MS detection.

[5] = Solubility testing, initial protocol (Example 17A), HPLC; assay type: physicochemical; conditions: thermodynamic from solid, 18 ° C.
Procedure: 10-60 mg of Test Article A was weighed into a 1 mL micro centrifuge tube. 100 μL of solvent was added. Samples were mixed using a vortex mixer, and then sonicated for 15 minutes at ambient temperature. In the event of complete dissolution, more solute was added. The resultant suspensions were centrifuged to yield an off-white saturated solution. A small aliquot of the supernatant was diluted prior to analysis by HPLC.
(§4) A HPLC method was developed to quantify Test Article A concentration via external standard analysis, and also monitor and quantify the hydrolysis product APAP. Linearity was determined over the range 20 to 120 μg/mL, and reproducibility was determined at 100 μg/mL.

[6] = Solubility via modified protocol with water bath equilibration (Example 17B), HPLC; assay type: physicochemical
Procedure: 10-60 mg of Test Article A was weighed into a 1 mL micro centrifuge tube. 100 μL of solvent was added. Samples were mixed using a vortex mixer, and then sonicated for 15 minutes at ambient temperature. In the event of complete dissolution, more solute was added. The resultant suspensions were equilibrated in a water bath for 20 minutes and were centrifuged for 1 minute to yield an off-white saturated solution. The samples were then equilibrated a further 20 minutes in the water bath. 5-10 μL aliquots of the supernatant were diluted into 25 mL of mobile phase using volumetric flasks, prior to analysis by HPLC.
as §4

[7] = cited from earlier work
[8] = Goodman and Gillman's 10th ed; cited from earlier work
[9] = cited from earlier work; remark: listed apart in the source
[10] = Solubility in phosphate-buffered saline (pH 7.2) at room temperature (Example 18); conditions: pH 7.2, aqueous buffer
[11] = Hydrolysis and metabolism in human whole blood at 37° C. (appearance of acetaminophen); assay type: in vitro ADME; conditions: human whole blood vs PBS
Procedure: as §1, §2
(§5) Purity was taken into account for the stock preparation.
as §3, with “1980” for “1,980”, “pool” for “pool were added to the appropriate tubes on test. Individual 1,980 μL aliquots of blank phosphate buffered saline (PBS)”
The appropriate intermediate solution was added to each tube on test such that the final concentration of the test article in blood was 6.62 μM. The compound was assayed in triplicate at this concentration. Nominal O-minute samples were aliquoted into a 96-well plate as soon as spiking solution was added. […]

[12] = Hydrolysis and metabolism in rat whole blood at 37° C. (appearance of acetaminophen); assay type: in vitro ADME, SD Rat; conditions: rat whole blood vs PBS
Procedure: as §1, §2, §5, §3
The appropriate intermediate solution was added to each tube on test such that the final concentration of the test article in blood was 6.62 μM. The compound was assayed in triplicate at this concentration. […]

alkaline phosphatase = conditions: with alkaline phosphatase; cited from earlier work
[13] = with and without cofactor, compared with buffer, 37° C., up to 240 minutes
[14] = Anesthesia and Analgesia 101, 90-96, 2005
[15] = British Journal of Anaesthesia 94 (5): 642-648, 2005

Row | Compound | Acetaminophen exposure compared with administration of acetaminophen [1] | Stability in PBS [2] | Stability in buffer [3] | Stability in buffer [4] | Water solubility [7] | Local tolerance profile [9, 14] [%] | Local tolerance profile [9, 15] [%] | Conversion to APAP in blood incubations versus buffer incubations [11] | Conversion to APAP in blood incubations versus buffer incubations [12] | solubility [10] [mg/mL] | other results
1 | CC(=O)Nc1ccc(OC(=O)SCCS(=O)(=O)[O-])cc1.[Na+] [Test Article A, Sodium 2-((4-acetamidophenoxy)carbonylthio)ethanesulfonate] | as great as, or greater than | rather stable | stable | stable |  |  |  |  |  |  | Time to maximum acetaminophen plasma concentration compared with Test Articles C and B ([1]; oral administration): longer time to maximum acetaminophen plasma concentrations; Conversion to acetaminophen in rat liver microsomes [3, 13]: at a level much greater than incubations with buffer; Conversion to acetaminophen in human liver microsomes [4, 13]: at a level greater than incubations with buffer; solubility at 15 min ([5]; aqueous buffer, PBS): 246 mg/mL; solubility at 15 min ([5]; aqueous with cosolvent or surfactant or cyclodextrin, 50% Water, Ethanol): 199 mg/mL; solubility at 15 min ([5]; organic solvent or mixture, Ethanol): 1 mg/mL; solubility at 15 min ([5]; Water, initial protocol): 280 mg/mL; solubility at 40 min ([6]; PEG-400, 19 °C, organic solvent or mixture, thermodynamic from solid): 103 mg/mL; solubility at 40 min ([6]; PEG-400/water (50% water), 19 °C, aqueous with cosolvent or surfactant or cyclodextrin, thermodynamic from solid): 306 mg/mL; solubility at 40 min ([6]; pH 5 buffer, 19 °C, pH 5, aqueous buffer, thermodynamic from solid): 226 mg/mL; solubility ([6]; pH 6.5 Buffer, 19 ° C.): 210 mg/mL; solubility at 40 min ([6]; pH 6.5 buffer, 19 °C, pH 6.5, aqueous buffer, thermodynamic from solid): 198 mg/mL; solubility at 40 min ([6]; pH 6.5 buffer, 35 °C, pH 6.5, aqueous buffer, thermodynamic from solid): 406 mg/mL; solubility at 40 min ([6]; pH 8 buffer, 19 °C, pH 8, aqueous buffer, thermodynamic from solid): 198 mg/mL; solubility at 40 min ([6]; propylene glycol, 19 °C, organic solvent or mixture, thermodynamic from solid): 69 mg/mL; solubility at 40 min ([6]; propylene glycol/water (50% water), 19 °C, aqueous with cosolvent or surfactant or cyclodextrin, thermodynamic from solid): 185 mg/mL; solubility ([6]; water, 0 °C, water, thermodynamic from solid, Water (in Fridge), 0 to 4 ° C., read-out: Solubility): 78 mg/mL; solubility at 40 min ([6]; water, 19 °C, thermodynamic from solid, Water Repeat, modified protocol): 230 mg/mL
2 | CC(=O)Nc1ccc(O)cc1 [Acetaminophen, N-(4-hydroxyphenyl)acetamide] |  |  |  |  | about 1.3 g per 100 mL | 0 | 52 |  |  |  | Half-life [8]: about 2 hours; solubility ([10]; phosphate-buffered saline): 13.1 mg/mL (≈ 86.7 mM)
3 | CCN(CC)CC(=O)Oc1ccc(NC(C)=O)cc1 [Propacetamol, 4-acetamidophenyl 2-(diethylamino)acetate] |  |  |  |  |  | 49 | 90 |  |  |  | 
4 | CC(=O)Nc1ccc(OC(=O)NCCS(=O)[O-])cc1.[Na+] [Test Article B, Sodium 2-((4-acetamidophenoxy)carbonylamino)ethanesulfinate] | substantially lower | not stable | not stable | not stable |  |  |  | nearly equivalent | nearly equivalent | 424 | 
5 | CC(=O)Nc1ccc(OP(=O)(O)O)cc1 [4-acetamidophenyl dihydrogen phosphate] |  |  |  |  | 50 g per 100 mL |  |  |  |  |  | Time required in vitro to yield acetaminophen from the derivative (alkaline phosphatase): about 15 hours
6 | CC(=O)Nc1ccc(OC(=O)NCCS(=O)(=O)[O-])cc1.[Na+] [Test Article C, Sodium 2-((4-acetamidophenoxy)carbonylamino)ethanesulfonate, reference compound] | substantially lower | not stable | not stable | not stable |  |  |  | nearly equivalent | nearly equivalent | 492 | 
